From paper PMC8550792, “Evolution of kinase polypharmacology across HSP90 drug discovery” (Cell Chemical Biology, 2021)

Assays:
Assay in all cases: biochemical
Assay type in all cases: biochemical
382 unique human kinases [1] = biological target: T1, 382 unique human kinases (Homo sapiens, UniProt P22455, V550L); settings: FGFR4 (V550L), 10 uM; for remaining activity at 10 µM: read-out: % Enzyme Activity (relative to DMSO controls)
T1 construct: purchased Reaction Biology (HotSpot contract assay)

382 unique human kinases [2] = biological target: T2, 382 unique human kinases (Homo sapiens, UniProt Q8TD19); settings: NEK9, 10 uM; for remaining activity at 10 µM: read-out: % Enzyme Activity (relative to DMSO controls)
T2 construct: purchased Reaction Biology (HotSpot contract assay)
T2 sequence (Q8TD19 1-979): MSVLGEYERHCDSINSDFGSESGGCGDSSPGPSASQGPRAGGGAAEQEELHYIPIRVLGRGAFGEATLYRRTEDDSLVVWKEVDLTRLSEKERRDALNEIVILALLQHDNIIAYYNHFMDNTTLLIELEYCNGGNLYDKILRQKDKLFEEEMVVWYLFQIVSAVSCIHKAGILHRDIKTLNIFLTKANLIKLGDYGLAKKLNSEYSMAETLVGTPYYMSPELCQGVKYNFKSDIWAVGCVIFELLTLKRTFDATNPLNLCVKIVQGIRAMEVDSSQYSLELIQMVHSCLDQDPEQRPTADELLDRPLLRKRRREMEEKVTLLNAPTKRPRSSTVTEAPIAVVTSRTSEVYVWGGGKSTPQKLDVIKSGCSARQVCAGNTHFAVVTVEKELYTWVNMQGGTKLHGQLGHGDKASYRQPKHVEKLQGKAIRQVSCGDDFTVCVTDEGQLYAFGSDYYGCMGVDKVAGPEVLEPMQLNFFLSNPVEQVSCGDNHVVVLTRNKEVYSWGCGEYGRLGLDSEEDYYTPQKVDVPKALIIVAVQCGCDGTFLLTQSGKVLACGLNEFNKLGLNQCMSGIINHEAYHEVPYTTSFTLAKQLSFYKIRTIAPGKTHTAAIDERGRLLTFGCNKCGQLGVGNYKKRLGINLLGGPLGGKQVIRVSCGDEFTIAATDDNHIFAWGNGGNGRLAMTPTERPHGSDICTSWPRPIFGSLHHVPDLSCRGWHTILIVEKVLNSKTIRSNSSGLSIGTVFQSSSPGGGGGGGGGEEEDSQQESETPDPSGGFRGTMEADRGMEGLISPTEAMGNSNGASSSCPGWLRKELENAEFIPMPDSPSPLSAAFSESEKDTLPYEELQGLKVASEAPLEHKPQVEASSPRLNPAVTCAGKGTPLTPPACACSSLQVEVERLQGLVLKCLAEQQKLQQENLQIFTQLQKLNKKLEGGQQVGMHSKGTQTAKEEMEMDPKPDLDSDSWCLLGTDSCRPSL

382 unique human kinases [3] = biological target: T3, 382 unique human kinases (Homo sapiens, UniProt P19525); settings: kinase EIF2AK2, compound 10 uM; for remaining activity at 10 µM: read-out: % Enzyme Activity (relative to DMSO controls)
T3 construct: purchased Reaction Biology (HotSpot contract assay)

382 unique human kinases [4] = biological target: T4, 382 unique human kinases (Homo sapiens, UniProt Q9UM73, C1156Y); settings: ALK (C1156Y), [ATP] 5 µM, compound 10 uM; for remaining activity at 10 µM: read-out: % Enzyme Activity (relative to DMSO controls)
T4 construct: purchased Reaction Biology (HotSpot contract assay)

382 unique human kinases [5] = biological target: T5, 382 unique human kinases (Homo sapiens, UniProt P29323); settings: EPHB2, [ATP] 30 µM, compound 10 uM; for remaining activity at 10 µM: read-out: % Enzyme Activity (relative to DMSO controls)
T5 construct: purchased Reaction Biology (HotSpot contract assay)
T5 sequence (P29323 19-1055): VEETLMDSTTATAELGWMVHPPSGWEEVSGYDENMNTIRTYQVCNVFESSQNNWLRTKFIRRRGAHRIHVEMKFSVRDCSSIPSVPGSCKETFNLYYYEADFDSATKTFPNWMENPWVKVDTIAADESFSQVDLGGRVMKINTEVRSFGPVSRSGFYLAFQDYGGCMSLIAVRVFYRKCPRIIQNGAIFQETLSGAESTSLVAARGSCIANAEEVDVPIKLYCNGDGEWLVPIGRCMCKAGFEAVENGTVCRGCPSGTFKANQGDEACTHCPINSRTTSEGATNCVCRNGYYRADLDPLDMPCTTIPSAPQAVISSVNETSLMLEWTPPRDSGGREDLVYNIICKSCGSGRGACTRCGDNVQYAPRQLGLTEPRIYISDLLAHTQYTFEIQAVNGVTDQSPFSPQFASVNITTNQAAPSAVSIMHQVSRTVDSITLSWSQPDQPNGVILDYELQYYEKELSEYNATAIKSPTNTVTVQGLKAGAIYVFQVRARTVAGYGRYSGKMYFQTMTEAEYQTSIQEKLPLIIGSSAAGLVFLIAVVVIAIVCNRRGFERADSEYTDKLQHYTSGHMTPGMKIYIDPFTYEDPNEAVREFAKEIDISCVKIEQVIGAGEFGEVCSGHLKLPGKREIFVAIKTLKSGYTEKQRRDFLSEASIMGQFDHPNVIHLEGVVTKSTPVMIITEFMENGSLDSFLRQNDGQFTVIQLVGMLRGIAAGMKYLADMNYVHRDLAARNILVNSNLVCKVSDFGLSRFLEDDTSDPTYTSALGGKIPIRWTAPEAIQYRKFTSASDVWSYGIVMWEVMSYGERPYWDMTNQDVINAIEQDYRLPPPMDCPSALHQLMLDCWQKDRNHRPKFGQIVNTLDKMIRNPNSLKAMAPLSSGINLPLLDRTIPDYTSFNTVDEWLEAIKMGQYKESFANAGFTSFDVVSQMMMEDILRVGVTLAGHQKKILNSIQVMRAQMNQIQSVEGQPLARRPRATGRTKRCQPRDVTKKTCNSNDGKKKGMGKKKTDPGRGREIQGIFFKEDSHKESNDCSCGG

T4 sequence (Q9UM73 19-1620 C1156Y): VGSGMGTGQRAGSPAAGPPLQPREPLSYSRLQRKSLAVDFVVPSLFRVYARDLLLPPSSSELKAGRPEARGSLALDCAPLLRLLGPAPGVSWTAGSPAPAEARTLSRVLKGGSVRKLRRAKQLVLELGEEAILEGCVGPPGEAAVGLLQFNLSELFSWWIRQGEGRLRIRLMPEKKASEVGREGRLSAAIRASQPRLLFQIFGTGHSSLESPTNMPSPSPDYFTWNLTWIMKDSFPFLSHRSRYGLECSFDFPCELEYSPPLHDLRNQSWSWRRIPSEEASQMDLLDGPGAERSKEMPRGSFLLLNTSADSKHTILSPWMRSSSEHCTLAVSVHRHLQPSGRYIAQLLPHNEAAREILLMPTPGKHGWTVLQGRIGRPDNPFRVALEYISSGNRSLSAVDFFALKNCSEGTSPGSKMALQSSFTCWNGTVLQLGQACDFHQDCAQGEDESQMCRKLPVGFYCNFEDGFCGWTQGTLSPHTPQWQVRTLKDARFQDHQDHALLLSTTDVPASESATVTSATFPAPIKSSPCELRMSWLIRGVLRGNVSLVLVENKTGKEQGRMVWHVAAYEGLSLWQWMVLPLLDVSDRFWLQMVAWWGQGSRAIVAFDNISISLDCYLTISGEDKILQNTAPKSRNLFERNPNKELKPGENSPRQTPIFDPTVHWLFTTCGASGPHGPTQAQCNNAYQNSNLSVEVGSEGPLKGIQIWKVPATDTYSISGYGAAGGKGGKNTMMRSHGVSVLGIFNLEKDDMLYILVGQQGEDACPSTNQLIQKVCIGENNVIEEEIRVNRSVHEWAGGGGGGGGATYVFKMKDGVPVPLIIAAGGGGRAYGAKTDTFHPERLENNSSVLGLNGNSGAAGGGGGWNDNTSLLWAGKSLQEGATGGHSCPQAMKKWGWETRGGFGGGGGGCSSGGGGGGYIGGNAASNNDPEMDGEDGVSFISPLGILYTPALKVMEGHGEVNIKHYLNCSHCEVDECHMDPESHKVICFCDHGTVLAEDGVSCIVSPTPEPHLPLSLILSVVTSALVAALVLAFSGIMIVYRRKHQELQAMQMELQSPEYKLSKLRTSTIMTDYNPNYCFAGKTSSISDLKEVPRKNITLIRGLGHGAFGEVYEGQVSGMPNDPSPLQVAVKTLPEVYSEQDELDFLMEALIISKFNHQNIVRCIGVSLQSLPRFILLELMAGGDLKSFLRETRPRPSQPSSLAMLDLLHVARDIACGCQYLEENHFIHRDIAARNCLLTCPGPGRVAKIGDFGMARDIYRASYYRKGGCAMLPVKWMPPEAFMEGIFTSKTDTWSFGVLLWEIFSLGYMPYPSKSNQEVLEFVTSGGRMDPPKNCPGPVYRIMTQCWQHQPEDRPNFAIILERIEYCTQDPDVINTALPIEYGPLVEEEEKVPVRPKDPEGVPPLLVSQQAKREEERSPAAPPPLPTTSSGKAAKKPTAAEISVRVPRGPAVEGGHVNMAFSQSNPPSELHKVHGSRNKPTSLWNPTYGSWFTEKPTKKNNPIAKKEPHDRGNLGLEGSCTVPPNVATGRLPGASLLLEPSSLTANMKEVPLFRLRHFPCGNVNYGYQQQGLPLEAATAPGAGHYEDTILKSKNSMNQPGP
T3 sequence (P19525 whole entry): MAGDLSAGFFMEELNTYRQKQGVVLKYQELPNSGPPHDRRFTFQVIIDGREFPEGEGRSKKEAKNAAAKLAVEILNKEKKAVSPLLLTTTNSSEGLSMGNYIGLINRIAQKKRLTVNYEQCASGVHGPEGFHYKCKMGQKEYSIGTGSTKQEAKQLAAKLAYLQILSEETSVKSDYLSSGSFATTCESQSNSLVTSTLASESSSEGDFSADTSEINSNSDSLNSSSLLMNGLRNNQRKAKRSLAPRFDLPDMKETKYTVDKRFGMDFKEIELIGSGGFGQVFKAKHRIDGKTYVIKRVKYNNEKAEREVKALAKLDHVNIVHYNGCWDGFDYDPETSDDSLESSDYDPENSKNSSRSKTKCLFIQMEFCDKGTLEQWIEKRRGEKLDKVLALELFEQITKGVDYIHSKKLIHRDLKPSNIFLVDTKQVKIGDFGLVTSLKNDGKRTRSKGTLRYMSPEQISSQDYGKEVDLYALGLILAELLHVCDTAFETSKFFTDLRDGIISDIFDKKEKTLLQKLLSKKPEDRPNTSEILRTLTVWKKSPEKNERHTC
T1 sequence (P22455 22-802 V550L): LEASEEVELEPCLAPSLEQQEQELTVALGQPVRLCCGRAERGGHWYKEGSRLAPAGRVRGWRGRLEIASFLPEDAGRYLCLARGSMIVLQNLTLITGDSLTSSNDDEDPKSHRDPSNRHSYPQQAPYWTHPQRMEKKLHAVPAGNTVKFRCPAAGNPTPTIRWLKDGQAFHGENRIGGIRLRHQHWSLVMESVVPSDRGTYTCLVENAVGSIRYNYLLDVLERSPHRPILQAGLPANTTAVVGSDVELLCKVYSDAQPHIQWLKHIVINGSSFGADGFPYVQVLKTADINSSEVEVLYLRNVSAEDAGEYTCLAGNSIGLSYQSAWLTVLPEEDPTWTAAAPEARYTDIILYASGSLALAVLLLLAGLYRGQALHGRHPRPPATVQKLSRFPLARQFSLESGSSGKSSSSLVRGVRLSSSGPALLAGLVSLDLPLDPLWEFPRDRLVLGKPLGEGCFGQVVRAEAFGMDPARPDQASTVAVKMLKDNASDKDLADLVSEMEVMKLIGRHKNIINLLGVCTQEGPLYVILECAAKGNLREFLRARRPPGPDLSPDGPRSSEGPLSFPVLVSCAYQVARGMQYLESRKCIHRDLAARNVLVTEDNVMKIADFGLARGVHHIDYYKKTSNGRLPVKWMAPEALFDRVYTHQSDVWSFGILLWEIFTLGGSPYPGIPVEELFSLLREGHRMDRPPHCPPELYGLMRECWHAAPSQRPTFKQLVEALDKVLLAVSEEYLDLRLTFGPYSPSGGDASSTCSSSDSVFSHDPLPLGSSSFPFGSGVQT

Row | Compound | remaining activity at 10 µM (382 unique human kinases [1]) [%] | remaining activity at 10 µM (382 unique human kinases [2]) [%] | remaining activity at 10 µM (382 unique human kinases [3]) [%] | remaining activity at 10 µM (382 unique human kinases [4]) [%] | remaining activity at 10 µM (382 unique human kinases [5]) [%] | % Enzyme Activity (relative to DMSO controls) (382 unique human kinases [1]) [%] | % Enzyme Activity (relative to DMSO controls) (382 unique human kinases [2]) [%] | % Enzyme Activity (relative to DMSO controls) (382 unique human kinases [3]) [%] | % Enzyme Activity (relative to DMSO controls) (382 unique human kinases [4]) [%] | % Enzyme Activity (relative to DMSO controls) (382 unique human kinases [5]) [%]
1 | CC(C)c1cc(-c2n[nH]c(=O)n2-c2ccc3c(ccn3C)c2)c(O)cc1O [Ganetespib (STA9090)] | 76.1 | 62.5 | 90.5 | – | – | – | – | – | – | –
2 | CC(C)c1cc(-c2n[nH]c(=O)n2-c2ccc3c(ccn3C)c2)c(O)cc1O [Ganetespib] | – | – | – | 20 | 45.3 | – | – | – | – | –
3 | CCNC(=O)c1noc(-c2cc(C(C)C)c(O)cc2O)c1-c1ccc(CN2CCOCC2)cc1 [Luminespib (AUY-922)] | 101 | 73 | 108 | – | – | 101.11 | 72.56 | 107.07 | – | –
4 | CCNC(=O)c1noc(-c2cc(C(C)C)c(O)cc2O)c1-c1ccc(CN2CCOCC2)cc1 [Luminespib] | – | – | – | 93.3 | 63.2 | – | – | – | 91.42 | 61.81
